In PubChem BioAssay (NCI) one finds GI50 and TGI data, which are given here for 9 compounds.

Values joined by “and” are separate entries in the source; they are usually repeats but may differ in a detail not shown here. Identical values can stand only once.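 Briefly, cells in 96-well plates were exposed to five compound concentrations for 48 h, and endpoints were estimated by linear interpolation. Abbreviation: GI50, concentration required for 50% inhibition of growth. TGI: concentration producing complete growth inhibition.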 A value given as a limit tells only on which side of the number the result lay.

Test systems include HCC-2998 colon; HOP-62 NSCLC; U251 CNS; SN12C renal; M14 melanoma; SK-OV-3 ovarian; SNB-19 CNS; SK-MEL-5 melanoma; SF-268 CNS; UACC-257 melanoma.
What all share (assay): NCI anticancer screen, dose series, 48 h

Consider `O=c1ccccc(-c2ccc(-c3ccco3)cc2)c1O`, for which the GI50 in the assay on HCC-2998 colon is 0.691 µM; in the assay with HOP-62 NSCLC it was 0.694 µM; with U251 CNS, 0.87 µM; with SN12C renal, 1.24 µM; in the assay on M14 melanoma, 0.665 µM; in the assay on SK-OV-3 ovarian it was 1.22 µM. The GI50 with SNB-19 CNS is 1.04 µM; with SK-MEL-5 melanoma, 0.935 µM; in the assay on SF-268 CNS, 0.761 µM; with UACC-257 melanoma it was 1.6 µM. In addition, the TGI in the assay with HCC-2998 colon is 33.2 µM; in the assay on HOP-62 NSCLC it was 12.9 µM; in the assay with U251 CNS, 12.7 µM; in the assay on SN12C renal, 16.6 µM; in the assay on M14 melanoma, 6.11 µM; with SK-OV-3 ovarian, 24 µM. In addition, the TGI in the assay with SNB-19 CNS was 22.9 µM; with SK-MEL-5 melanoma, 8.44 µM; in the assay with SF-268 CNS it was > 100 µM; with UACC-257 melanoma, 18.8 µM.

Consider `CC(C(=O)c1ccccc1)C1(O)C(=O)Nc2ccccc21` (stereo not drawn), for which the TGI with HCC-2998 colon, with HOP-62 NSCLC, in the assay on U251 CNS, with SN12C renal, in the assay with M14 melanoma and with SK-OV-3 ovarian was > 100 µM each time. In addition, the TGI in the assay on SNB-19 CNS, with SK-MEL-5 melanoma, in the assay with SF-268 CNS and in the assay on UACC-257 melanoma was > 100 µM throughout.

Take `CCCC1C(=O)C(CC)Cc2c(OC)ccc(OC)c21` (stereo not drawn): the TGI with HCC-2998 colon, with HOP-62 NSCLC, in the assay with U251 CNS, with SN12C renal, in the assay on M14 melanoma and in the assay with SK-OV-3 ovarian was > 100 µM each time. Besides, the TGI with SNB-19 CNS, in the assay on SK-MEL-5 melanoma, with SF-268 CNS and in the assay on UACC-257 melanoma was > 100 µM throughout.

With `C[C@@H](Oc1cc(NS(=O)(=O)N2CCC2)nc(SCc2cccc(F)c2F)n1)[C@@H](O)CO`, the GI50 in the assay with HCC-2998 colon, in the assay on HOP-62 NSCLC, with U251 CNS, with SN12C renal, in the assay on M14 melanoma and in the assay on SK-OV-3 ovarian was > 100 µM each time. Moreover, the GI50 with SNB-19 CNS, with SK-MEL-5 melanoma, in the assay on SF-268 CNS and in the assay with UACC-257 melanoma was > 100 µM in each case. Besides, the TGI with HCC-2998 colon, in the assay on HOP-62 NSCLC, in the assay with U251 CNS, in the assay on SN12C renal, with M14 melanoma and in the assay on SK-OV-3 ovarian was > 100 µM in each case. The TGI in the assay with SNB-19 CNS, with SK-MEL-5 melanoma, with SF-268 CNS and with UACC-257 melanoma was > 100 µM in each case.

In the case of `CC1OC(O[C@H]2/C=C/C=C/C=C/C=C/C=C/C=C/C=C/[C@H](C)[C@@H](O)[C@@H](C)[C@H](C)OC(=O)C[C@H](O)C[C@H](O)CC[C@@H](O)[C@H](O)C[C@H](O)C[C@]3(O)C[C@H](O)[C@@H](C(=O)O)[C@H](C2)O3)C(O)C(N)C1O` (stereo partly drawn), the TGI in the assay on HCC-2998 colon was 61.2 µM; in the assay on HOP-62 NSCLC, 42.2 µM; in the assay with U251 CNS, 40.6 µM; with SN12C renal, 9.15 µM; in the assay on M14 melanoma, 29.2 µM; in the assay with SK-OV-3 ovarian it was 70.1 µM. Also, the TGI in the assay with SNB-19 CNS came to 50.2 µM; with SK-MEL-5 melanoma, 59 µM; in the assay with SF-268 CNS it was 60.7 µM; in the assay with UACC-257 melanoma it was 40.4 µM. In addition, the GI50 with HOP-62 NSCLC was 20.5 µM; with U251 CNS, 14.3 µM; in the assay on SN12C renal, 2.01 µM; with M14 melanoma, 11 µM; in the assay on SNB-19 CNS, 37.8 µM; in the assay with SK-MEL-5 melanoma it was 25.8 µM. Further, the figures for the GI50 in the assay with SF-268 CNS and in the assay on UACC-257 melanoma were 25.6 µM and 12.2 µM, respectively.

As to `Cc1ccc2c(N/N=C\c3ccco3)cc(C)nc2n1`, the GI50 with HCC-2998 colon is 2.7 µM; with HOP-62 NSCLC, 10 µM; with U251 CNS, 1.94 µM; in the assay on SN12C renal, 4.68 µM; with M14 melanoma, 2.05 µM; in the assay with SK-OV-3 ovarian, 8.74 µM. For the same compound, the GI50 in the assay with SNB-19 CNS was 8.15 µM; with SK-MEL-5 melanoma, 10.1 µM; in the assay with SF-268 CNS, 6.15 µM; in the assay with UACC-257 melanoma it was 2.79 µM. Besides, the TGI in the assay with HCC-2998 colon was 7.4 µM; with HOP-62 NSCLC, 24.4 µM; in the assay on U251 CNS, 7.06 µM; in the assay with SN12C renal, 16.5 µM; in the assay with M14 melanoma, 4.04 µM; with SK-OV-3 ovarian it was 22.7 µM. Besides, the TGI in the assay with SNB-19 CNS is 24 µM; in the assay with SK-MEL-5 melanoma, 22.3 µM; with SF-268 CNS, 20.5 µM; in the assay with UACC-257 melanoma, 8.72 µM.

For the compound `C[C@]12CC(C#N)C(=O)C(O)=C1CC[C@@H]1C2CC[C@@]2(C)C1CC[C@@H]2O` (stereo partly drawn), the TGI in the assay on HCC-2998 colon, in the assay with HOP-62 NSCLC, in the assay on U251 CNS, in the assay with SN12C renal, in the assay with M14 melanoma and in the assay with SK-OV-3 ovarian was > 100 µM in each case. Further, the TGI with SNB-19 CNS, in the assay with SK-MEL-5 melanoma, with SF-268 CNS and with UACC-257 melanoma was > 100 µM throughout.

In the case of `COc1cc2c(Nc3ccc(Br)cc3F)ncnc2cc1OCC1CCN(C)CC1`, the GI50 in the assay with HCC-2998 colon was 7.38 µM and > 10 µM; with HOP-62 NSCLC it was 3.24 µM and 5.81 µM; with U251 CNS, 4.81 µM and 7.68 µM; in the assay with SN12C renal, 1.58 µM and 3.04 µM; in the assay with M14 melanoma, 1.91 µM and 1.74 µM; with SK-OV-3 ovarian, 1.2 µM and 1.67 µM. Further, the GI50 was 4.7 µM and > 10 µM in the assay with SNB-19 CNS; 4.38 µM and 5.5 µM with SK-MEL-5 melanoma; 3.24 µM and 6.18 µM with SF-268 CNS; 1.85 µM and 1.73 µM in the assay on UACC-257 melanoma. In addition, the TGI with HCC-2998 colon was 21.6 µM and > 10 µM; in the assay on HOP-62 NSCLC, 14.6 µM and > 10 µM; with U251 CNS, 17.1 µM and > 10 µM; in the assay on SN12C renal, 12.1 µM and > 10 µM; in the assay with M14 melanoma, 3.62 µM and 3.66 µM; with SK-OV-3 ovarian, 7.06 µM and > 10 µM. Besides, the TGI with SNB-19 CNS is 18.3 µM and > 10 µM; with SK-MEL-5 melanoma it was 8.94 µM and > 10 µM; in the assay on SF-268 CNS, 15 µM and > 10 µM; in the assay on UACC-257 melanoma, 3.44 µM and 3.6 µM.

As to `O=C(O[C@H]1CN[C@H](C#Cc2cc3ncnc(Nc4ccc(OCc5cccc(F)c5)c(Cl)c4)c3s2)C1)N1CCOCC1`, the GI50 in the assay on HCC-2998 colon is 5.01 µM; in the assay on HOP-62 NSCLC it was > 13 µM; in the assay on U251 CNS, 8.7 µM; with SN12C renal, 5.66 µM; with M14 melanoma it was 12.6 µM; in the assay on SK-OV-3 ovarian, 0.0356 µM. Besides, the GI50 is > 25 µM with SNB-19 CNS, 8.55 µM in the assay with SK-MEL-5 melanoma, 5.81 µM in the assay on SF-268 CNS and > 19.1 µM in the assay with UACC-257 melanoma. Moreover, the TGI is 12.6 µM in the assay with HCC-2998 colon; > 25 µM in the assay with HOP-62 NSCLC; > 25 µM in the assay on U251 CNS; > 25 µM in the assay with SN12C renal; > 25 µM with M14 melanoma; > 25 µM with SK-OV-3 ovarian. Besides, the TGI in the assay on SNB-19 CNS, in the assay on SK-MEL-5 melanoma, in the assay on SF-268 CNS and in the assay on UACC-257 melanoma was > 25 µM each time.
